Measured values from patent US20210337802A1, “COMPOSITION AND PROCESS FOR RECONDITIONING RESPIRATORS AND OTHER PERSONAL PROTECTIVE EQUIPMENT” (Tygrus, LLC, priority 2020, published 2021).

How the values were obtained:
Assay type in all cases: physicochemical
[1] = Excess hydrogen ion concentration and pH after admixing with water; settings: 5 ml material in 5 ml deionized and distilled water, standard temperature and pressure
Experimental: The excess hydrogen ion concentration is measured as greater than 15% by volume and the pH of the material is determined to be 1.

[2] = Freeze point by DSC (USP <891>); settings: Example materials at 1% by volume in water
Experimental: In order to evaluate freezing point, the samples are analyzed using a TA Instruments Q100 DSC equipped with an RCS-90 cooling system following USP <891>.

[3] = Acidity titration for hydrogen ion content (ASTM D1067 Test Method A); settings: titrated to pH 8.6; Example materials at 1% by volume in water
Excerpt: The testing was completed using a Metrohm 826 Titrando equipped with a pH probe.

[4] = Conductivity of diluted samples (EPA method 120.1); settings: samples diluted with de-ionized water; Example materials at 1% by volume in water
Excerpt: In order to test for conductivity the samples are each diluted with de-ionized water for analysis. The testing is completed using a Mettler Toledo Seven Excellence Meter with a conductivity probe following EPA method 120.1.

Question: For “hydrogen (1+), triaqua-μ3-oxotri sulfate (1:1) [Example I]”, which pH [1] is on record?
Answer: 1

Question: And the “Melting Temperature (freeze point)” value [2]?
Answer: −9.07 °C

Question: What about the “Acidity @ pH 8.6” value [3] of the same substance?
Answer: 1307.28 meq/L

Question: What about the Conductivity [4] of the same substance?
Answer: 551 mS/cm
